Test results from ChEMBL document CHEMBL1201862, “PubChem BioAssay data set” (2004).
Activity calls are given as the source filed them.

Tests used:
Caspase-3 = biological target: T1, Caspase-3 (Homo sapiens, UniProt P42574); type: functional;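 further: Dose-response selectivity test against caspase-3 for candidate inhibitors of sentrin-specific proteases (SENPs)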
T1 sequence (P42574 whole entry): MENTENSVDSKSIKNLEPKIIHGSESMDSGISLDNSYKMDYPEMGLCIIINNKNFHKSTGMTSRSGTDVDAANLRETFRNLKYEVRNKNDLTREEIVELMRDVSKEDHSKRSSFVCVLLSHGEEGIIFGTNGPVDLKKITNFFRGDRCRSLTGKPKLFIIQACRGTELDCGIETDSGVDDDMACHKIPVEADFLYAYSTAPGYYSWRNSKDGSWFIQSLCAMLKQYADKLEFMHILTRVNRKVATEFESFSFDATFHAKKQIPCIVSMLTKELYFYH

[1] = biological target: T2, Sentrin-specific protease 7 (Homo sapiens, UniProt Q9BQF6); type: functional;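 further: Luminescence-based dose-response confirmation of ultra-high-throughput screening hits, measuring inhibition of SENP7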
T2 sequence (Q9BQF6 whole entry): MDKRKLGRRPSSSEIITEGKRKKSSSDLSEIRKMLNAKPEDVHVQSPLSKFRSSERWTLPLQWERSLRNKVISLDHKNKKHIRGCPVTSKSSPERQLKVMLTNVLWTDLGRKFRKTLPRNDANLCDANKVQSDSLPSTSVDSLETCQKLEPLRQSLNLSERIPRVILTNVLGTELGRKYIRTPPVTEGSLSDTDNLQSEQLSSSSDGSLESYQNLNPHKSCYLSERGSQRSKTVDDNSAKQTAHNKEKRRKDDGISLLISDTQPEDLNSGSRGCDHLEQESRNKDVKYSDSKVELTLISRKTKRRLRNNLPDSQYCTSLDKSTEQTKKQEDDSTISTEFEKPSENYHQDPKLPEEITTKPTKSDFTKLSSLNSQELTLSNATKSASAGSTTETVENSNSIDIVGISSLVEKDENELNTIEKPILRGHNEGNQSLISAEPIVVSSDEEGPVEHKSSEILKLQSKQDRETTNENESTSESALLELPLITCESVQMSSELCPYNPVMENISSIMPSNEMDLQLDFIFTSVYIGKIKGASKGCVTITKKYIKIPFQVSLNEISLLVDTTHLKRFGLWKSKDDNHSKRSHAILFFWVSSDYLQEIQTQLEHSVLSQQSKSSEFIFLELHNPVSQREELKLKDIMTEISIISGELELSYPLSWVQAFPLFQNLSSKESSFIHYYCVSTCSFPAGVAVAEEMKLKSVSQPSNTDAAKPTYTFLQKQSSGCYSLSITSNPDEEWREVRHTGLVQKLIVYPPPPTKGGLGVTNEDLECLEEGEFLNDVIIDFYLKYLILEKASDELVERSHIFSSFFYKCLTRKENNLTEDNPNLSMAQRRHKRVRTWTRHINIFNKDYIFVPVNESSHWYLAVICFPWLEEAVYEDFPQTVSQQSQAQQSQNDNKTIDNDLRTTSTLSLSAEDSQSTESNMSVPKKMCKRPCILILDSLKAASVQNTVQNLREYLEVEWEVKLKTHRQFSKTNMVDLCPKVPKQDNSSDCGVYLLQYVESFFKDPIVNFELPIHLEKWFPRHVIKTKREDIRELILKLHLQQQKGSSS

[2] = biological target: T3, Sentrin-specific protease 6 (Homo sapiens, UniProt Q9GZR1); type: functional;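 further: Luminescence-based dose-response confirmatory assay of SENP6 inhibition, following up an ultra-high-throughput screen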
T3 sequence (Q9GZR1 whole entry): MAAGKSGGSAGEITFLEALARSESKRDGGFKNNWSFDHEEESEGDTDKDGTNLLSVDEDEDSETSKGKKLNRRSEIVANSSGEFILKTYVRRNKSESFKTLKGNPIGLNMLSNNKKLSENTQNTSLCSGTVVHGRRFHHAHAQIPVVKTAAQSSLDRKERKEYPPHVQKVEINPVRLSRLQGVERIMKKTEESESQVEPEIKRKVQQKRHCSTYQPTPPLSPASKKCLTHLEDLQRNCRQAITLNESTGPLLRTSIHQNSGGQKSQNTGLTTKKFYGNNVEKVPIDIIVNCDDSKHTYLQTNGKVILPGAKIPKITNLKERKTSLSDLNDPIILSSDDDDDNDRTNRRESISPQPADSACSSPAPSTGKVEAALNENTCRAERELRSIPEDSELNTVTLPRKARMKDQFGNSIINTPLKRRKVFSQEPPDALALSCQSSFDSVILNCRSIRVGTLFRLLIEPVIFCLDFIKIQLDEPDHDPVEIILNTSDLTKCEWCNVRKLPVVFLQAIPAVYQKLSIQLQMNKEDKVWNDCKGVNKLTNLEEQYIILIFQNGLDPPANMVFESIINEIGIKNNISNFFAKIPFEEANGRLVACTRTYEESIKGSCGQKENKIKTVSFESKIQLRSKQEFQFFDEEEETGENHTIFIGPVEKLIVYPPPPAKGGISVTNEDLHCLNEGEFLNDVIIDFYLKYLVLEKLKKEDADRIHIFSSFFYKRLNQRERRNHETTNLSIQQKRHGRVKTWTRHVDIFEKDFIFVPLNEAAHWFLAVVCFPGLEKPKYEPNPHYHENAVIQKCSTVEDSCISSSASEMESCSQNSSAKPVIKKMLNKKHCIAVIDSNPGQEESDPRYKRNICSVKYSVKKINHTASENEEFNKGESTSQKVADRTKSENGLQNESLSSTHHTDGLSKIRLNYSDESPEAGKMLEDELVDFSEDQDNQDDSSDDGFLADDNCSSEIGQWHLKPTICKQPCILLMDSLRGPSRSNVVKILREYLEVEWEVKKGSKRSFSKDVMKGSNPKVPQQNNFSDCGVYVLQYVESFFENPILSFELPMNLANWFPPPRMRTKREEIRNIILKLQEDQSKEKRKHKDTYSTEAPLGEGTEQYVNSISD

[3] = biological target: T4, Sentrin-specific protease 8 (Homo sapiens, UniProt Q96LD8); type: functional;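 further: luminescence read-out of SENP8 inhibition, dose-response confirmation following an ultra-high-throughput screen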
T4 sequence (Q96LD8 whole entry): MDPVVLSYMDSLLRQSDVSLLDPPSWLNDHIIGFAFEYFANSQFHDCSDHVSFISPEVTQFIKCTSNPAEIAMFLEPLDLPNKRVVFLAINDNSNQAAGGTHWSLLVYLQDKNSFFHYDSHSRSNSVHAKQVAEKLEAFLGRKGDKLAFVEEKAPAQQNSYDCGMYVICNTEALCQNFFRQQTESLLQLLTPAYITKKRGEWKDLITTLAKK

Beta-galactosidase = Beta-galactosidase (Escherichia coli, UniProt Q8VNN2); test: PubChem AID 485352; type: functional
Sequence of Beta-galactosidase (Q8VNN2 whole entry): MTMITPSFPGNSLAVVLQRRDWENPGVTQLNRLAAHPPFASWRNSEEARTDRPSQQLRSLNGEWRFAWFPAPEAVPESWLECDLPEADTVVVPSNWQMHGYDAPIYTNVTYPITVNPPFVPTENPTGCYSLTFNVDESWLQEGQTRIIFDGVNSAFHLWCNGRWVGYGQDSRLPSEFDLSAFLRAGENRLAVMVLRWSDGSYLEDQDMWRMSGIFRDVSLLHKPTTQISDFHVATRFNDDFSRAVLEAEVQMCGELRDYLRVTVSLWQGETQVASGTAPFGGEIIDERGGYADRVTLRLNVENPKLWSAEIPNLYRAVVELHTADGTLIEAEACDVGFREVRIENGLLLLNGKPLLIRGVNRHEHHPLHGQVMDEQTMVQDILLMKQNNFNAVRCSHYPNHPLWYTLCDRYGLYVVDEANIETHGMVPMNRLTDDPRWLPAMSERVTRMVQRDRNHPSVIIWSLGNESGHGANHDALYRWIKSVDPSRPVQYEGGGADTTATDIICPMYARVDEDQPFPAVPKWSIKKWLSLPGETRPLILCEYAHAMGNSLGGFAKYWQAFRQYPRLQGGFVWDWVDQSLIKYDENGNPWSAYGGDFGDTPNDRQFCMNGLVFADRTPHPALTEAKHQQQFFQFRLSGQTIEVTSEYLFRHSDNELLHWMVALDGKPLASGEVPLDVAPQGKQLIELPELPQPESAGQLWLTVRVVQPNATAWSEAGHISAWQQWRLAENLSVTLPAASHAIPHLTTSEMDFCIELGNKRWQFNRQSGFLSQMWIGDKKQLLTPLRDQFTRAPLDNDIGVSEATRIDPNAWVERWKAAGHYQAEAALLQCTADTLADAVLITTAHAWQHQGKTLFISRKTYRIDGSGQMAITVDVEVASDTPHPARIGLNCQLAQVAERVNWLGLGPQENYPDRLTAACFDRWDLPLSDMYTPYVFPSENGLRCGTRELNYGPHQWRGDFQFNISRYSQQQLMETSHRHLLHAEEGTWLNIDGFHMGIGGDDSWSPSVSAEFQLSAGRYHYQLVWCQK

[4] = Trypanosoma cruzi growth suppression in host cells – NIH3T3 host cells, beta-gal luminescence, confirmation (AID 2044); type: functional, cell-based;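 further: intracellular parasites grown in NIH/3T3 mouse fibroblasts as host cells; luminescent beta-galactosidase reporter signal from transgenic T. cruzi replicating inside host cells; inhibitors lower the luminescence signal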
[5] = biological target: T5, Type-1 angiotensin II receptor (Homo sapiens, UniProt P30556); test: antagonism of angiotensin II type 1 receptor – cell-based, uHTS hits, selectivity assay for APJ receptor antagonist project, dose response (AID 463214); type: functional;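 further: antagonist potency against angiotensin II stimulated AT1 response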
T5 sequence (P30556 whole entry): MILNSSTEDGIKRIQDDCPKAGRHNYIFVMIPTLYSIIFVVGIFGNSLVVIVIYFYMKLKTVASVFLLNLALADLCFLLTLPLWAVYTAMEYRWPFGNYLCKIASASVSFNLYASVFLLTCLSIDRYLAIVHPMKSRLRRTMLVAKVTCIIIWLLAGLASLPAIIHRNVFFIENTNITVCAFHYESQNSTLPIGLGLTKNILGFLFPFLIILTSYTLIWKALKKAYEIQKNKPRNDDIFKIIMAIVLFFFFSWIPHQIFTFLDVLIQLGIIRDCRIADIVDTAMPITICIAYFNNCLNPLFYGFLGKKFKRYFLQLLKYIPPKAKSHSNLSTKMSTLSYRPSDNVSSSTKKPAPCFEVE

[6] = NIH3T3 cell viability loss – ATP luminescence, mouse fibroblasts, counter-screen, dose response (AID 2010); type: functional, cell-based;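 further: cells exposed to compound for about 90 hours before reading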
[7] = biological target: T6, Corticotropin-releasing factor receptor 2/Corticotropin-releasing factor-binding protein (Homo sapiens, UniProt P24387+Q13324); test: activators of CRF receptor 2 with binding protein – uHTS hits, confirmation (AID 602473); type: functional; conditions: read-out: EC50_Mean
T6 sequence (Q13324 whole entry): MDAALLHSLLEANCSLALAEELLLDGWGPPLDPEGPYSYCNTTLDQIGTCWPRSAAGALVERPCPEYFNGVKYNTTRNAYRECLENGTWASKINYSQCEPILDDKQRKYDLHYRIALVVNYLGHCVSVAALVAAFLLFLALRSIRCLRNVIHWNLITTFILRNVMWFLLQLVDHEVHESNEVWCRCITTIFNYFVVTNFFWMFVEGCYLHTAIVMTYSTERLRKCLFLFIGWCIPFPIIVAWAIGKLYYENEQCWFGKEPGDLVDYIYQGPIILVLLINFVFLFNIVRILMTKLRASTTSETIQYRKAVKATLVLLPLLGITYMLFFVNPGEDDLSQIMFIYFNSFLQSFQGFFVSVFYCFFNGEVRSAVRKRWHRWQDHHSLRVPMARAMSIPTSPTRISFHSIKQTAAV
T6 sequence (P24387 whole entry): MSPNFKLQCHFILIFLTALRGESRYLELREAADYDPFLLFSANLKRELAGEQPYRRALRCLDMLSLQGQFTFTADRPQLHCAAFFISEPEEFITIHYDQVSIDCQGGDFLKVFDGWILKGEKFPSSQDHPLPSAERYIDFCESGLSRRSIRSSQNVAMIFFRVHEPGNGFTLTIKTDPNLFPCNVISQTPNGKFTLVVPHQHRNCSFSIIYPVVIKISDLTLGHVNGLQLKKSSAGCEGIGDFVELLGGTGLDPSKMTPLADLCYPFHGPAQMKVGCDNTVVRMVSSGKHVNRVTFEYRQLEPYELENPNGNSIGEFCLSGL

[8] = Luminescence Cell-Based Dose Retest to Confirm Inhibitors of Cancer Stem Cells. [Related pubchem assays (depositor defined):AID2717, AID2721]; type: functional; conditions: Homo sapiens
[9] = biological target: T7, Microphthalmia-associated transcription factor (Homo sapiens, UniProt O75030); test: reducers of TRPM1 reporter luminescence, concentration series – cell-based, SK-MEL-5, cherry-picked, set 3, MITF inhibitor project, dose response (AID 493073); type: functional;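 further: SK-MEL-5 melanoma cells with luciferase driven by the MITF target TRPM1 promoter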
T7 sequence (O75030 whole entry): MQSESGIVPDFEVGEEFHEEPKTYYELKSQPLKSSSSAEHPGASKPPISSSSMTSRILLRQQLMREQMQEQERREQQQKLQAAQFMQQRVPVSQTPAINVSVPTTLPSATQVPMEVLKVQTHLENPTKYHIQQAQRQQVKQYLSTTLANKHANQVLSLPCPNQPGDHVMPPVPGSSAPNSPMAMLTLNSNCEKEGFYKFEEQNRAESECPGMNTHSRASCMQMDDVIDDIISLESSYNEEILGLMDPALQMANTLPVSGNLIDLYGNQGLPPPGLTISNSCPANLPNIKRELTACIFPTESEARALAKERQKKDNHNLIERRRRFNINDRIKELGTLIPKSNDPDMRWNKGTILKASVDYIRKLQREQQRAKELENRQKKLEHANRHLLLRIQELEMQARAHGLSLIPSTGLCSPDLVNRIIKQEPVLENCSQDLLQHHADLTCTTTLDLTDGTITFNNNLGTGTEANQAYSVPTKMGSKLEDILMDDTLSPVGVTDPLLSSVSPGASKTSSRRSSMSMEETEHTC

CHO = CHO cell viability loss, potency – luminescence, cytotoxicity control for TLR9-MyD88 binding inhibitor project, dose response (AID 588339); type: functional, cell-based, hamster; conditions: Cricetulus griseus;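 further: CHO cells stably coexpressing TLR9 and MyD88 fusions from primary screen; compound exposure lasted 48 hours before viability readout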
Beta Lactamase = Beta Lactamase (Pseudomonas aeruginosa, UniProt Q932Y6); test: BLA reporter interference, concentration series – BLA reporter cells, FRET fluorescence, artefact control for TLR9-MyD88 binding inhibitor project, dose response (AID 588341); type: cell-based;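 further: cell based assay in CHO-K1 cells stably expressing beta-lactamase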
Sequence of Beta Lactamase (Q932Y6 whole entry): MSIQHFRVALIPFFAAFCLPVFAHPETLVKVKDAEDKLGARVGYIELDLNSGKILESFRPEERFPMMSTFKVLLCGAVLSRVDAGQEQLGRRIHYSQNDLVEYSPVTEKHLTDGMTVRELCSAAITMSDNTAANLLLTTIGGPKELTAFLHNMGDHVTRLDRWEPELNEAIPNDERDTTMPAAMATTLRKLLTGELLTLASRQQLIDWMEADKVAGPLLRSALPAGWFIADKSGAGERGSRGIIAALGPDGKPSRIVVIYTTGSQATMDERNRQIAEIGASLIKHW

INS1 = test: INS-1E survival protection against cytokine death – cell-based, luminescence, retest, dose response (AID 449756); type: functional; conditions: Rattus norvegicus;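 further: cell death triggered by IL-1 beta plus TNF-alpha plus IFN-gamma mixture; protective hits raise ATP signal compared with cytokine alone wells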
[10] = Fluorescence-based cell-based high throughput dose response assay for inhibitors of the interaction of nucleotide-binding oligomerization domain containing 2 (NOD2) and the receptor-interacting serine-threonine kinase 2 (RIPK2).; type: functional; conditions: Homo sapiens

Compound | IC50 (Caspase-3) | IC50 [1] | IC50 [2] | IC50 [3] | EC50 (Beta-galactosidase) | EC50 [4] | IC50 [5] | EC50 [6] | EC50 [7] | AC50 [8] | AC50 [9] | IC50 (CHO) | IC50 (Beta Lactamase) | AC50 (INS1) | IC50 [10]
Cc1ccc2oc(-c3ccccc3)nc2c1 | 5.39 µM (active) | 5.32 µM (active) | 7.6 µM (active) | 39.3 µM (active) |  |  |  |  |  |  |  |  |  |  | 
Cc1ccc(C)c2nc3sc(C(=O)N4CCCc5ccccc54)c(N)c3cc12 |  |  |  |  | > 40 µM (inactive) | 1.56 µM (active) | > 40 µM (not active) | > 60 µM (not active) | 8.83 µM (active) |  |  |  |  |  | 
CCn1c(=O)c([N+](=O)[O-])c(Cl)c2ccccc21 |  |  |  |  | > 40 µM (inactive) | 1.89 µM (active) | 2.22 µM (active) | 15 µM (active) |  | 1.85 µM (active) | 7.21 µM (active) | 1.03 µM (active) | 28.6 µM (inactive) | 5.02 µM (active) | 0.622 µM (active)
COc1ccc(C(=O)CNc2cccc(F)c2)cc1 |  |  |  |  | > 40 µM (inactive) |  | 28 µM (not active) |  |  |  |  |  |  |  | 
